Source: publication PMC8379256, “A xanthene derivative, DS20060511, attenuates glucose intolerance by inducing skeletal muscle-specific GLUT4 translocation in mice” (Communications Biology, 2021)
Values joined by “and” are separate entries in the source; they are usually repeats but may differ in a detail not shown here. Equal entries are not always repeated.

Legend:
WT and eNOSKO mice = assay: ITT in wild-type and eNOS-knockout mice; assay type: in vivo, mouse; conditions: for Blood glucose: Insulin tolerance test, individual animals
Method: Fig. 7 DS20060511 treatment decreases blood glucose levels in both WT and eNOSKO mice during oral GTT and ITT. a, b Blood glucose levels during oral GTT in wild-type (WT, n = 5) and eNOS-knockout (KO, n = 5–6) mice. Mice received vehicle or DS20060511 (10 mg kg^−1) orally 15 min before the glucose administration (3.0 g kg^−1). c, d Blood glucose levels during ITT in WT (n = 4) and KO (n = 5) mice. […] Values shown are means ± SEM. *P < 0.05, **P < 0.01, ***P < 0.001 vs. vehicle by the t-test.
(§1) C57BL/6 and db/db mice were purchased from CLEA Japan, Tokyo, Japan. GLUT4- knockout mice were generated at RIKEN BioResource Center, Tsukuba, Japan, according to a previously described method. eNOS-knockout mice were kindly provided by Dr. Masato Tsutsui[41],[42]. The mice were group-housed under controlled illumination (12:12 h light-dark cycle) and temperature (23 ± 2 °C) conditions and given free access to normal chow and water, unless otherwise specified. The HFD-fed obese mice were prepared by feeding C57BL/6 mice a HFD for at least 8 weeks from 6 weeks of age. […] Male mice were used for all the experiments in this study. The animal care and experimental procedures used in the study were approved by The University of Tokyo Animal Care Committee (Approval number: 27-3), and the study was carried out in accordance with the Animal Experimentation Guidelines of Daiichi Sankyo Co., Ltd (Approved number: 20000411).
Mice received the indicated oral dose of DS20060511 or vehicle at the same time as the intraperitoneal injection of insulin (Humulin) at the indicated dose. Blood glucose levels were measured using Glutest Every in blood samples collected from the tail vein at the indicated timepoints.

isolated skeletal muscle = assay: 2-DG uptake in muscles isolated from NC-fed and HFD-fed mice; parameters: species or system mouse; conditions: for Raio: 2-DG uptake in isolated muscles; for Raio / 2DOG Trn / IC 2DOG: individual muscles; for 2DOG Trn / IC 2DOG: isolated muscles
Method: Fig. 8 Acute and chronic DS20060511 treatment improves glucose intolerance in HFD-fed and db/db mice. a Blood glucose and plasma insulin levels during an oral GTT in normal-chow (NC)- and high-fat diet (HFD)-fed mice (n = 5). Vehicle or DS20060511 (30 mg kg^−1) was given orally 15 min before the oral glucose administration (1.5 g kg^−1). Values shown are means ± SEM. *P < 0.05, **P < 0.01, ***P < 0.001 vs. the HFD vehicle by the t-test. b Effects of 10 μM DS20060511 and 100 nM insulin on 2-DG uptake in muscles isolated from NC-fed (n = 6) and HFD-fed (n = 5) mice. Values shown are means ± SEM. **P < 0.01 by one-way ANOVA followed by Tukey’s test. c, d Changes in the blood glucose levels and AUC on day 1 and day 28 during refeeding (n = 6) in db/db mice treated chronically with DS20060511 (10 mg kg^−1 day^−1). Values shown are means ± SEM. *P < 0.05, **P < 0.01, ***P < 0.001 vs. vehicle by the t-test. e Change of the HbA1c levels in the db/db (n = 6) mice at 4 weeks. Values shown are means ± SEM. *P < 0.05 vs. vehicle by the t-test.
as §1
The soleus or EDL muscle was removed from anesthetized mice (isoflurane anesthesia) that had been denied access to food overnight, and incubated with oxygenated (95% O2/5% CO2) Krebs-Henseleit Bicarbonate (KHB) buffer (118.1 mM NaCl, 4.7 mM KCl, 1.1 mM KH2PO4, 1.2 mM MgSO4, 2.5 mM CaCl2, and 25 mM NaHCO3, pH7.4) in the presence of 11.1 mM glucose at 37 °C. The muscle specimens were then treated with the indicated concentrations of the compounds in KHB buffer containing 11.1 mM glucose and 8 mM mannitol for 10 min at 37 °C. Thereafter, the muscles were rinsed with KHB buffer containing 8 mM mannitol and the compounds for 5 min at 37 °C. Lastly, the muscles were treated with the compounds in KHB buffer containing 1 mM 2-DG (with 0.3 μCi mL^−1 [^3H]-2-DG) and 8 mM mannitol (with 0.03 μCi mL^−1 [^14C]-mannitol) for 10 min at 37 °C. After the muscle specimens were washed, they were lysed with 1 N NaOH and neutralized with 1 N HCl. The ^14C- and ^3H-specific activities were counted with a liquid scintillation counter. The specific uptake of 2-DG was calculated by subtracting the nonspecific uptake of mannitol from the total 2-DG uptake. To investigate the effects of muscle contraction, muscle contraction was induced by electrical stimulation with 5 Hz (1 ms pulse duration, 100 V) for 10 min (SEN-5201, Nihon Koden, Tokyo, Japan).

L6-GLUT4myc myotubes = assay: GLUT4 translocation: cell surface GLUT4myc by anti-Myc antibody assay in L6-GLUT4myc myotubes; assay type: cell-based, rat
[1] = HFD, DS20060511 10 μM plus Insulin 100 nM
[2] = HFD, DS20060511 0 μM, Insulin 100 nM
[3] = NC, DS20060511 0 μM, Insulin 100 nM

COc1ccc2c(C)c(C(=O)O)ccc2c1C1C2=C(CC(C)(C)CC2=O)OC2=C1C(=O)CC(C)(C)C2 [DS20060511]
Blood glucose (WT and eNOSKO mice; Wildtype, 10 mg/kg, 0 min): 176 mg/dL and 163 mg/dL and 183 mg/dL and 182 mg/dL | Blood glucose (WT and eNOSKO mice; Wildtype, 10 mg/kg, 20 min): 96 mg/dL and 77 mg/dL and 89 mg/dL and 88 mg/dL | Blood glucose (WT and eNOSKO mice; Wildtype, 10 mg/kg, 40 min): 60 mg/dL and 67 mg/dL and 74 mg/dL | Blood glucose (WT and eNOSKO mice; Wildtype, 10 mg/kg, 60 min): 58 mg/dL and 71 mg/dL and 70 mg/dL and 52 mg/dL | Blood glucose (WT and eNOSKO mice; Wildtype, 10 mg/kg, 80 min): 57 mg/dL and 67 mg/dL and 68 mg/dL and 53 mg/dL | Blood glucose (WT and eNOSKO mice; Wildtype, 10 mg/kg, 100 min): 63 mg/dL and 84 mg/dL and 67 mg/dL and 58 mg/dL | Blood glucose (WT and eNOSKO mice; Wildtype, 10 mg/kg, 120 min): 57 mg/dL and 74 mg/dL and 70 mg/dL | Blood glucose (WT and eNOSKO mice; eNOSKO, 30 mg/kg, 0 min): 191 mg/dL and 175 mg/dL and 168 mg/dL and 169 mg/dL | Blood glucose (WT and eNOSKO mice; eNOSKO, 30 mg/kg, 20 min): 95 mg/dL and 89 mg/dL and 100 mg/dL and 120 mg/dL and 97 mg/dL | Blood glucose (WT and eNOSKO mice; eNOSKO, 30 mg/kg, 40 min): 69 mg/dL and 75 mg/dL and 81 mg/dL and 76 mg/dL | Blood glucose (WT and eNOSKO mice; eNOSKO, 30 mg/kg, 60 min): 61 mg/dL and 64 mg/dL and 40 mg/dL and 41 mg/dL and 51 mg/dL | Blood glucose (WT and eNOSKO mice; eNOSKO, 30 mg/kg, 80 min): 66 mg/dL and 55 mg/dL and 39 mg/dL and 48 mg/dL | Blood glucose (WT and eNOSKO mice; eNOSKO, 30 mg/kg, 100 min): 72 mg/dL and 53 mg/dL and 35 mg/dL and 34 mg/dL and 39 mg/dL | Blood glucose (WT and eNOSKO mice; eNOSKO, 30 mg/kg, 120 min): 76 mg/dL and 49 mg/dL and 55 mg/dL and 37 mg/dL and 39 mg/dL | blood glucose levels during ITT (in words) (WT and eNOSKO mice; WT and eNOSKO mice, 30 mg kg−1 po with 0.5 U kg−1 insulin ip): reduced even further | Raio (isolated skeletal muscle; [1]): 2.30 and 2.20 and 2.00 and 1.46 and 1.88 | suppression of insulin-induced 2-DG uptake in isolated skeletal muscle (isolated skeletal muscle; HFD-fed mice, 10 μM DS20060511, 100 nM insulin): completely restored | 2DOG Trn (isolated skeletal muscle; HFD, DS20060511 10 μM plus Insulin 100 nM, incubation time 10 min): 45.7 µM/min and 43.8 µM/min and 39.8 µM/min and 37.4 µM/min | 2DOG Trn (isolated skeletal muscle; [1]): 457 nmol/mL and 438 nmol/mL and 436 nmol/mL and 374 nmol/mL | IC 2DOG (isolated skeletal muscle; [1]): 292 nmol/g and 276 nmol/g and 268 nmol/g and 283 nmol/g and 257 nmol/g | A: Abs. (450 nm) (L6-GLUT4myc myotubes; DS20060511 0.1 μM, replicates 1-3): 0.190 (2×) and 0.196

Insulin: Insulin (Humulin, Eli Lilly) in the in vivo experiments; Insulin solution human (I9278, Sigma–Aldrich) in the in vitro experiments
Raio (isolated skeletal muscle; [2]): 1.28 and 1.46 and 1.65 and 1.16 and 0.85 | Raio (isolated skeletal muscle; [3]): 2.15 and 2.48 and 1.82 and 1.55 and 1.68 and 2.28 | 2DOG Trn (isolated skeletal muscle; HFD, DS20060511 0 μM, Insulin 100 nM, incubation time 10 min): 25.5 µM/min and 29.1 µM/min and 32.9 µM/min and 23.1 µM/min and 14.4 µM/min | 2DOG Trn (isolated skeletal muscle; [2]): 255 nmol/mL and 291 nmol/mL and 329 nmol/mL and 324 nmol/mL and 259 nmol/mL | IC 2DOG (isolated skeletal muscle; [2]): 163 nmol/g and 186 nmol/g and 216 nmol/g and 214 nmol/g and 174 nmol/g | 2DOG Trn (isolated skeletal muscle; NC, DS20060511 0 μM, Insulin 100 nM, incubation time 10 min): 27.4 µM/min and 29.7 µM/min and 40.3 µM/min and 38.9 µM/min and 44.9 µM/min and 32.9 µM/min | 2DOG Trn (isolated skeletal muscle; [3]): 274 nmol/mL and 297 nmol/mL and 403 nmol/mL and 389 nmol/mL and 449 nmol/mL and 329 nmol/mL | IC 2DOG (isolated skeletal muscle; [3]): 192 nmol/g and 210 nmol/g and 264 nmol/g and 259 nmol/g and 303 nmol/g and 223 nmol/g | A: Abs. (450 nm) (L6-GLUT4myc myotubes; Insulin 100 nM): 0.287 and 0.285 and 0.286
